According to the supplement of paper PMC6045584:
± gives the standard deviation of the averaged measurements.

What was measured:
CANERTINIB [1] = compound: T1, C=CC(=O)Nc1cc2c(Nc3ccc(F)c(Cl)c3)ncnc2cc1OCCCN1CCOCC1 [CANERTINIB]; experiment: surviving fraction relative to DMSO-only wells; higher = less growth inhibition; details: exposure time: 5 days
Method in brief: (§1)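 Tumour cell lines in log phase were plated in 384-well plates at 250–500 cells per well, then, after 24 hours, exposed continuously for five days to inhibitors at 0.5, 1, 5, 10, 50, 100, 500 and 1000 nM. Viability came from CellTiter-Glo luminescence, and surviving fraction is that signal normalised to the median of DMSO-only wells. Plates were read after 10 minutes at room temperature, and each line, screened three times, was kept only when replicate Pearson r was >0.7 and median Z' was >0.3.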

SNX-5422 [2] = compound: T2, CC1(C)CC(=O)c2c(C(F)(F)F)nn(-c3ccc(C(N)=O)c(N[C@H]4CC[C@H](OC(=O)CN)CC4)c3)c2C1 [SNX-5422]; experiment: as above; details: exposure time: 5 days
Method in brief: as §1

BI-2536 [3] = compound: T3, CC[C@@H]1C(=O)N(C)c2cnc(Nc3ccc(C(=O)NC4CCN(C)CC4)cc3OC)nc2N1C1CCCC1 [BI-2536]; experiment: as above; details: exposure time: 5 days
Method in brief: as §1

MDV3100 [4] = compound: T4, CNC(=O)c1ccc(N2C(=S)N(c3ccc(C#N)c(C(F)(F)F)c3)C(=O)C2(C)C)cc1F [MDV3100]; experiment: as above; details: exposure time: 5 days
Method in brief: as §1

[5] = compound: Cn1cc(C2=Nc3cc(NC(=O)C(N)C4CCCCC4)cc4c3C2=CNNC4=O)cn1; experiment: area under dose-response curve of surviving fraction (unscaled, Aref=0) (surviving fraction x log10(nM)); higher = more resistant; details: exposure time: 5 days; dose range 0.5-1000 nM
Method in brief: (§2)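 Each tumour cell line was screened three times in 384-well plates, receiving eight inhibitor concentrations from 0.5 to 1000 nM for five days. CellTiter-Glo luminescence gave viability, normalised to DMSO-only wells. Using the drc R package, surviving fractions were fitted with 3-parameter logistic dose-response curves, and the unscaled activity area over log10 dose (Aref = 0) was taken as the area under the curve.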

AFATINIB = compound: CN(C)C/C=C/C(=O)Nc1cc2c(Nc3ccc(F)c(Cl)c3)ncnc2cc1O[C@H]1CCOC1 [AFATINIB]; experiment: as above; details: exposure time: 5 days; dose range 0.5-1000 nM
Method in brief: as §2

SAPACITABINE = compound: CCCCCCCCCCCCCCCC(=O)Nc1ccn([C@@H]2O[C@H](CO)[C@@H](O)[C@@H]2C#N)c(=O)n1 [SAPACITABINE]; experiment: as above; details: exposure time: 5 days; dose range 0.5-1000 nM
Method in brief: as §2

TIOGUANINE = compound: Nc1nc2[nH]cnc2c(=S)[nH]1 [TIOGUANINE]; experiment: as above; details: exposure time: 5 days; dose range 0.5-1000 nM
Method in brief: as §2

CANERTINIB [6] = compound: T1, CANERTINIB; experiment: as above; details: exposure time: 5 days; dose range 0.5-1000 nM
Method in brief: as §2

SNX-5422 [7] = compound: T2, SNX-5422; experiment: as above; details: exposure time: 5 days; dose range 0.5-1000 nM
Method in brief: as §2

BI-2536 [8] = compound: T3, BI-2536; experiment: as above; details: exposure time: 5 days; dose range 0.5-1000 nM
Method in brief: as §2

MDV3100 [9] = compound: T4, MDV3100; experiment: as above; details: exposure time: 5 days; dose range 0.5-1000 nM
Method in brief: as §2

OS25HAL BONE showed a surviving fraction (CANERTINIB [1]; 50 nM) of 1.014 ± 0.0056, a surviving fraction (CANERTINIB [1]; 100 nM) of 1.03 ± 0.019 and a surviving fraction (CANERTINIB [1]; 500 nM) of 1.01 ± 0.072. The surviving fraction (CANERTINIB [1]; 1000 nM) was 0.981 ± 0.092, the surviving fraction (SNX-5422 [2]; 0.5 nM) was 0.9827 ± 0.0029 and the surviving fraction (SNX-5422 [2]; 1 nM) was 1.004 ± 0.0087. It also gave a surviving fraction (SNX-5422 [2]; 5 nM) of 1.03 ± 0.019, a surviving fraction (SNX-5422 [2]; 10 nM) of 0.998 ± 0.036 and a surviving fraction (SNX-5422 [2]; 50 nM) of 0.789 ± 0.12. It also gave a surviving fraction (SNX-5422 [2]; 100 nM) of 0.257 ± 0.031, a surviving fraction (SNX-5422 [2]; 500 nM) of 0.13 ± 0.018 and a surviving fraction (SNX-5422 [2]; 1000 nM) of 0.132 ± 0.023. The surviving fraction (BI-2536 [3]; 0.5 nM) was 1.003 ± 0.006, the surviving fraction (BI-2536 [3]; 1 nM) was 0.933 ± 0.064 and the surviving fraction (BI-2536 [3]; 5 nM) was 0.0997 ± 0.016. It also gave a surviving fraction (BI-2536 [3]; 10 nM) of 0.0533 ± 0.0029, a surviving fraction (BI-2536 [3]; 50 nM) of 0.0483 ± 0.0015 and a surviving fraction (BI-2536 [3]; 100 nM) of 0.0337 ± 0.004. It also gave a surviving fraction (BI-2536 [3]; 500 nM) of 0.0317 ± 0.0023, a surviving fraction (BI-2536 [3]; 1000 nM) of 0.037 ± 0.002 and a surviving fraction (MDV3100 [4]; 0.5 nM) of 0.968 ± 0.03. It also gave a surviving fraction (MDV3100 [4]; 1 nM) of 0.932 ± 0.015, a surviving fraction (MDV3100 [4]; 5 nM) of 0.962 ± 0.018 and a surviving fraction (MDV3100 [4]; 10 nM) of 0.959 ± 0.011. For the same test system, the surviving fraction (MDV3100 [4]; 50 nM) was 1.06 ± 0.013, the surviving fraction (MDV3100 [4]; 100 nM) was 1.06 ± 0.03 and the surviving fraction (MDV3100 [4]; 500 nM) was 1.04 ± 0.026. The surviving fraction (MDV3100 [4]; 1000 nM) was 1.01 ± 0.057, the “area under dose-response curve” value [5] was 2.71 and the “area under dose-response curve” value (AFATINIB) was 3.28. The “area under dose-response curve” value (SAPACITABINE) was 2.79, the “area under dose-response curve” value (TIOGUANINE) was 3.21 and the “area under dose-response curve” value (CANERTINIB [6]) was 3.13. The “area under dose-response curve” value (SNX-5422 [7]) was 2.27, the “area under dose-response curve” value (BI-2536 [8]) was 0.792 and the “area under dose-response curve” value (MDV3100 [9]) was 3.23.
